In patent US20060030615A1, “Progesterone receptor modulators comprising pyrrole-oxindole derivatives and uses thereof” (Wyeth, priority 2004, published 2006) one finds melting point, IC50 and ED50 data, which are given here for 16 compounds.

What is called melting point is the temperature, or range, at which the solid turns liquid. In general, IC50 refers to the point on the concentration scale where inhibition reaches its midpoint.

System in one data set: not given
Experiment: not given
Conditions: not given
`CCC1(CC)C(=O)Nc2ccc(-c3ccc(C#N)n3C)cc21` [5-(3,3-Diethyl-2-oxo-2,3-dihydro-1H-indol-5-yl)-1-methyl-1H-pyrrole-2-carbonitrile] gave a melting point of 233 to 235 °C.

A further data set concerns the target T1, progesterone receptor (Homo sapiens, UniProt P06401).
T1 construct: Effects of Progestins and Antiprogestins on Alkaline Phosphatase Activity in T47D cells; endogenous in cells; host or cells: T47D cells
T1 sequence (P06401 1-933): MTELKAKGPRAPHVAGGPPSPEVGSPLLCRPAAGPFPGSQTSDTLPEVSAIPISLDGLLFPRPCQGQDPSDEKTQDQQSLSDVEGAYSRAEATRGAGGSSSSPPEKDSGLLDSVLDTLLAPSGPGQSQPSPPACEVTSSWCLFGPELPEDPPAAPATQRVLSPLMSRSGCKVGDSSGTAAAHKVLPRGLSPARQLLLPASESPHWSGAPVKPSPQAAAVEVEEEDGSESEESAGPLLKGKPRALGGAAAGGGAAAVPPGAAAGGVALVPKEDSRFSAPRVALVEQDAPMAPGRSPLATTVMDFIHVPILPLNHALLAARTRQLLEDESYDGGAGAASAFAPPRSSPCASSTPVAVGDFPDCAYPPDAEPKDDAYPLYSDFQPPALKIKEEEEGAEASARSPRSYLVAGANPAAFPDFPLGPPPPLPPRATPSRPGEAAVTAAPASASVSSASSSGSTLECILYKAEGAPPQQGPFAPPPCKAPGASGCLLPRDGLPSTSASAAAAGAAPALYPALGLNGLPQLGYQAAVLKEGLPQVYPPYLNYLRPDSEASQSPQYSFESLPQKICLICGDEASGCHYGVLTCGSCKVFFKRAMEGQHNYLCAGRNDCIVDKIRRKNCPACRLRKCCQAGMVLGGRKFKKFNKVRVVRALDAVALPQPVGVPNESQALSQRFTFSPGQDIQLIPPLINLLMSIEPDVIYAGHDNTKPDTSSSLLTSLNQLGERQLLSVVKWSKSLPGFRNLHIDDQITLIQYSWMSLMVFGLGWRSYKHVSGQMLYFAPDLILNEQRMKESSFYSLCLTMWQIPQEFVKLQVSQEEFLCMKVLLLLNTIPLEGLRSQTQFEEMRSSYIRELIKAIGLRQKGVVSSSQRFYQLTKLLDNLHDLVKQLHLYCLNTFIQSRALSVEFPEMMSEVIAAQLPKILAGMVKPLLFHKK
Kind of data set: T47D Cell Alkaline Phosphatase Assay. Type of data set: cell-based. The conditions noted are these: antagonist mode, T47D cells, in the presence of 1 nM progesterone, 24 hours. On the procedure: A. Effects of Progestins and Antiprogestins on Alkaline Phosphatase Activity in T47D cells (T47D Alkaline Phosphatase Assay)
The molecules of the present invention are anticipated to be active in the antagonist mode in the T47D alkaline phosphatase assay at concentrations of 3 μM or lower.
Culture medium: DMEM:F12 (1:1) (GIBCO, BRL) supplemented with 5% (v/v) charcoal stripped fetal bovine serum (not heat-inactivated), 100 U/ml penicillin, 100 μg/ml streptomycin, and 2 mM GlutaMax (GIBCO, BRL).
Alkaline phosphatase assay buffer: I. 0.1M Tris-HCI, pH 9.8, containing 0.2% Triton X-100, 0.1M Tris-HCI, pH 9.8, containing 4 mM p-nitrophenyl phosphate (Sigma).
2. Cell Culture And Treatment:
Frozen T47D cells are thawed in a 37° C. water bath and diluted to 280,000 cells/ml in culture medium. To each well in a 96-well plate (Falcon, Becton Dickinson Labware), 180 μl of diluted cell suspension is added. Twenty μl of reference or test compounds diluted in the culture medium is then added to each well. When testing for progestin antagonist activity, reference antiprogestins or test compounds are added in the presence of 1 nM progesterone. The cells are incubated at 37° C. in a 5% CO2 humidified atmosphere for 24 hours. For high throughput screening, one concentration of each compound will be tested at 0.3 μg/ml. Based on an average molecular weight of 300 g/mol for the compounds in the library, the concentration is approximately 1 μM. Subsequently, active compounds will be tested in dose response assays to determine EC50 and IC50.
3. Alkaline Phosphatase Enzyme Assay:
At the end of treatment, the medium is removed from the plate. Fifty μl of assay buffer I is added to each well. The plates are shaken in a titer plate shaker for 15 min. Then 150 μl of assay buffer II is added to each well. Optical density measurements are taken at 5 min intervals for 30 min. at a test wavelength of 405 nm.
4. Analysis of Dose-Response Data.
For reference and test compounds, a dose response curve is generated for dose vs. the rate of enzyme reaction (slope). Square root-transformed data are used for analysis of variance and nonlinear dose response curve fitting for both agonist and antagonist modes. Huber weighting is used to down-weight the effects of outliers. EC50 or IC50 values are calculated from the retransformed values. JMP software (SAS Institute, Inc.) is used for both one-way analysis of variance and non-4 linear dose response analysis in both single dose and dose response studies.
Progesterone and trimegestone are reference progestins and RU486 is the reference antiprogestin. All reference compounds are run in full dose response curves and the EC50 and IC50 values are calculated.
With `CCC1C(=O)Nc2ccc(-c3ccc(C#N)n3C)cc21` (racemic) [5-(3-ethyl-2-oxo-2,3-dihydro-1H-indol-5-yl)-1-methyl-1H-pyrrole-2-carbonitrile], the IC50 turned out to be 5.7 nM.
Regarding `CC[C@H]1C(=O)Nc2ccc(-c3ccc(C#N)n3C)cc21` (single isomer, unassigned), the IC50 was 6.1 nM.
For the compound `CC[C@@]1(C)C(=O)Nc2ccc(-c3ccc(C#N)n3C)cc21` (single isomer, unassigned), the IC50 stood at 3.2 nM.
For `CC[C@@H]1C(=O)Nc2ccc(-c3ccc(C#N)n3C)cc21` (single isomer, unassigned), the IC50 turned out to be 13.1 nM.
As for `CC[C@]1(C)C(=O)Nc2ccc(-c3ccc(C#N)n3C)cc21` (single isomer, unassigned), the IC50 worked out at 7.4 nM.
Regarding `CN1C(=O)C(C)(C)c2cc(-c3ccc(C#N)n3C)ccc21` [1-methyl-5-(1,3,3-trimethyl-2-oxo-2,3-dihydro-1H-indol-5-yl)-1H-pyrrole-2-carbonitrile], the IC50 was 13.3 nM.
Still for that read-out and setting: next, `Cn1c(C#N)ccc1-c1ccc2c(c1)CC(=O)N2` [1-methyl-5-(2-oxo-2,3-dihydro-1H-indol-5-yl)-1H-pyrrole-2-carbonitrile]: 20.4 nM; `Cn1c(C#N)ccc1-c1ccc2c(c1)C1(CCC1)C(=O)N2` [1-methyl-5-(2′-oxo-1′,2′-dihydrospiro[cyclobutane-1,3′-indol]-5′-yl)-1H-pyrrole-2-carbonitrile]: 1 nM; `Cn1c(C#N)ccc1-c1ccc2c(c1)C1(CCCC1)C(=O)N2` [1-methyl-5-(2′-oxo-1′,2′-dihydrospiro[cyclopentane-1,3′-indol]-5′-yl)-1H-pyrrole-2-carbonitrile]: 30 nM.
With `Cn1c(C#N)ccc1-c1ccc2c(c1)C1(CC1)C(=O)N2` [1-methyl-5-(2′-oxo-1′,2′-dihydrospiro[cyclopropane-1,3′-indol]-5′-yl)-1H-pyrrole-2-carbonitrile], the IC50 was determined as 8.1 nM.
`CC(C)(C)OC(=O)n1c(C#N)ccc1-c1ccc2c(c1)C1(CCCC1)C(=O)N2` [2-Cyano-5-(1,2-dihydro-2-oxospiro[cyclopentane-1,3-[3H]indol]-5-yl)-1H-pyrrole-1-carboxylic acid, tert-butyl ester]: the IC50 was determined as 300 nM.
Turning to `N#Cc1ccc(-c2ccc3c(c2)C2(CCCC2)C(=O)N3)[nH]1` [5-(1,2-Dihydro-2-oxospiro[cyclopentane-1,3-[3H]indol]-5-yl)-1H-pyrrole-2-carbonitrile], the IC50 came out at 60 nM.
On the same count and under the same terms, next, `CN1C(=O)C(C)(C)c2cc(-c3ccc(C#N)[nH]3)ccc21` [5-(1,3,3-trimethyl-2-oxo-2,3-dihydro-1H-indol-5-yl)-1H-pyrrole-2-carbonitrile]: 72.9 nM.
In the case of `CCC1(CC)C(=O)Nc2ccc(-c3ccc(C#N)n3C)cc21` [5-(3,3-Diethyl-2-oxo-2,3-dihydro-1H-indol-5-yl)-1-methyl-1H-pyrrole-2-carbonitrile], the IC50 came to 3.3 nM.
`CC1(C)C(=O)Nc2ccc(-c3ccc(C#N)[nH]3)cc21` [5-(3,3-Dimethyl-2-oxo-2,3-dihydro-1H-indol-5-yl)-1H-pyrrole-2-carbonitrile]: the IC50 stood at 27.2 nM.
On to `Cn1c(C#N)ccc1-c1ccc2c(c1)C(C)(C)C(=O)N2` [5-(3,3-dimethyl-2-oxo-2,3-dihydro-1H-indol-5-yl)-1-methyl-1H-pyrrole-2-carbonitrile], for which the IC50 worked out at 10 nM.

The test system of a further data set is rat uterine decidualization. Kind of data set: Rat Decidualization Assay (mature ovariectomized rats). Type of data set: in vivo. The conditions noted are these: rat decidual assay, po. On the procedure: B. Progestational and Antiprogestational Activity in Mature Ovariectomized Rats (Rat Decidualization Assay)
This assay is used to evaluate the effect of progestins and antiprogestins on rat uterine decidualization and compare the relative potencies of various test compounds.
Test compounds are dissolved in 100% ethanol and mixed with corn oil (vehicle). Stock solutions of the test compounds in oil (Mazola™) are then prepared by heating (˜80° C.) the mixture to evaporate ethanol. Test compounds are subsequently diluted with 100% corn oil or 10% ethanol in corn oil prior to the treatment of animals. No difference in decidual response was found when these two vehicles were compared. […]
Approximately 24 hr after the third injection, decidualization is induced in one of the uterine horns of anesthetized rats by scratching the antimesometrial luminal epithelium with a blunt 21 G needle. […] Approximately 24 hr following the final treatment, rats are sacrificed by CO asphyxiation and body weight measured. […]
In agonist mode, the increase in weight of the decidualized uterine horn is calculated by D-horn/C-horn and logarithmic transformation is used to maximize normality and homogeneity of variance. […] EC50 is calculated from the transformed value. […] IC50 is calculated from the retransformed value. […]
`Cn1c(C#N)ccc1-c1ccc2c(c1)C(C)(C)C(=O)N2` [5-(3,3-dimethyl-2-oxo-2,3-dihydro-1H-indol-5-yl)-1-methyl-1H-pyrrole-2-carbonitrile] yielded an ED50 of 0.2 mg/k.
